Experimental data: patent US8106055B2, “Substituted amide compounds” (Gruenenthal GmbH, priority 2007, dated 2012)
Where two headings read alike, the source gives them in different places.

Assays:
[1] = target: T1, human bradykinin 1 receptor (B1R) (Homo sapiens, UniProt P46663); experiment: Functional investigation on the human bradykinin 1 receptor (B1R), Ca2+ FLIPR assay in CHO K1 hB1R cells; format: cell-based; conditions: test substance 10 μM; for inhibition at 10 µM: CHO-K1, B1R antagonism human, read-out: B1R Ant. h [10 μM] % Inhibition
T1 construct: expressed in transfected cells; host or cells: CHO K1 cells
T1 sequence (P46663 1-353): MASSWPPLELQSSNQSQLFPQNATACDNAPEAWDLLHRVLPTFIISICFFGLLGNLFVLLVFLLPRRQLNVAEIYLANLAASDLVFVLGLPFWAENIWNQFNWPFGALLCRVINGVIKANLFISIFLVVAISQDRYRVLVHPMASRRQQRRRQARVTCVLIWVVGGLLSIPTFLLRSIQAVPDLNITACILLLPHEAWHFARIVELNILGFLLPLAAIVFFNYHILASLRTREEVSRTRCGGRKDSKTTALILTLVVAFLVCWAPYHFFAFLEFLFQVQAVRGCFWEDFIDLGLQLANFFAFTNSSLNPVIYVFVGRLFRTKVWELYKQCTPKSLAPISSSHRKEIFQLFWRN
In short: (§1)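 Cells were dye-loaded with Fluo-4 plus probenecid, then test substances added and Ca2+ influx compared with agonist control for % activation. After 10-20 min, EC80 agonist (Lys-Des-Arg9-bradykinin human; Des-Arg9-bradykinin rat) was applied; suppression gave % inhibition and IC50 values.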

[2] = target: T2, bradykinin 1 receptor (B1R) of the rat (Rattus norvegicus, UniProt P97583); experiment: Functional investigation on the rat bradykinin 1 receptor (B1R), Ca2+ FLIPR assay in CHO K1 rB1R cells; format: cell-based; conditions: test substance 10 μM; for inhibition at 10 µM: CHO-K1, B1R antagonism rat, read-out: B1R Ant. r [10 μM] % Inhibition
T2 construct: expressed in transfected cells; host or cells: CHO K1 cells
T2 sequence (P97583 1-337): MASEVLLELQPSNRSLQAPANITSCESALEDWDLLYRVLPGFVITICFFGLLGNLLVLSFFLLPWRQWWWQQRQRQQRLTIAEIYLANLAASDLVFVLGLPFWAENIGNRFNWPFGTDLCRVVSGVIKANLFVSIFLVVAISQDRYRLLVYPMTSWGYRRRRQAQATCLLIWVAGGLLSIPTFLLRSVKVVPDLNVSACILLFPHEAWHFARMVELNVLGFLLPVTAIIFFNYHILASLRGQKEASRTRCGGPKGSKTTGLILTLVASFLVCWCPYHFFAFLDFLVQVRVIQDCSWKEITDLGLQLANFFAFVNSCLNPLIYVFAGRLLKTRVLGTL
In short: as §1

[3] = target: T3, human μ opiate receptor (Homo sapiens, UniProt P35372); experiment: Affinity for the human μ opiate receptor ([3H]-naloxone displacement, CHO-K1 receptor membrane preparation, SPA); format: binding; conditions: 1.5 h, test concentration 1 μM
T3 construct: purchased PerkinElmer Life Sciences, Zaventem, Belgium RB-HOM; host or cells: CHO-K1 cells (membrane preparation)
T3 sequence (P35372 whole entry): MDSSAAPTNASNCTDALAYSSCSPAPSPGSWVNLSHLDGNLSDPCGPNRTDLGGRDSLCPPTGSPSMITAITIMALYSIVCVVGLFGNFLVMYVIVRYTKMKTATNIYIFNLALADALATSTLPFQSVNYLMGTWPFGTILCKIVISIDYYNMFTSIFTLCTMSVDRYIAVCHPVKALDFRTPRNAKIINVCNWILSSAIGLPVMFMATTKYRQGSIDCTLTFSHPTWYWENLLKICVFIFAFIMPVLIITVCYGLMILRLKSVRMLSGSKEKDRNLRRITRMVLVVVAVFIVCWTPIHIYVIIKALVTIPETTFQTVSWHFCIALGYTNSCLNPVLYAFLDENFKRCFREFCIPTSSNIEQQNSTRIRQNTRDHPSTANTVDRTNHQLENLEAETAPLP
In short: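 Membranes from CHO-K1 cells expressing the human μ opiate receptor (15-40 μg protein per well) were incubated with test compound, 1 nmol/l [3H]-naloxone and WGA-SPA beads in 50 mmol/l Tris-HCl with 0.06% BSA for 90 minutes at room temperature. Values are % inhibition of specific binding at 1 μmol/l.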

[4] = % inhibition compared with the maximum achievable inhibition
[5] = Table 3, to be read in the same way as Table 1, read-out: μ

## CN1CCN(C(c2ccc(F)cc2)C2CCN(C(=O)COCC3CCc4ccccc4N3S(=O)(=O)c3ccc(Cl)c(Cl)c3)CC2)CC1 (stereo not drawn) [Example 808, 2-((1-(3,4-dichlorophenylsulfonyl)-1,2,3,4-tetrahydroquinolin-2-yl)methoxy)-1-(4-((4-fluorophenyl)(4-methylpiperazin-1-yl)methyl)piperidin-1-yl)ethanone]
[1]; [4]
  inhibition at 10 µM: 122%
[2]; [4]
  inhibition at 10 µM: 75%
[3]; [5]
  inhibition at 1 µM: 12%

## COc1cc(C)c(S(=O)(=O)N(C)CCOCC(=O)N2CCC(C(c3cccc(F)c3)N3CCN(C)CC3)CC2)c(C)c1 (stereo not drawn) [Example 799, N-(2-(2-(4-((3-fluorophenyl)(4-methylpiperazin-1-yl)methyl)piperidin-1-yl)-2-oxoethoxy)ethyl)-4-methoxy-N,2,6-trimethylbenzenesulfonamide]
[1]; [4]
  inhibition at 10 µM: 110%
[2]; [4]
  inhibition at 10 µM: 100%
[3]; [5]
  inhibition at 1 µM: 16%

## COc1cc(C)c(S(=O)(=O)N2CCCC(COCC(=O)NCC3CCC(C(CCc4ccccc4)N4CCOCC4)CC3)C2)c(C)c1 (stereo not drawn) [Example 756, 2-((1-(4-methoxy-2,6-dimethylphenylsulfonyl)piperidin-3-yl)methoxy)-N-((4-(1-morpholino-3-phenylpropyl)cyclohexyl)methyl)acetamide]
[1]; Ca2+ FLIPR, CHO K1 hB1R cells
  inhibition at 10 µM: 64%
[2]; Ca2+ FLIPR, CHO K1 rB1R cells
  inhibition at 10 µM: 43%
[3]; [5]
  inhibition at 1 µM: 5%

## CN(CCOCC(=O)NCC1CCC(C(CCc2ccccc2)N2CCCC2)CC1)S(=O)(=O)c1c(Cl)cc(Cl)cc1Cl (stereo not drawn) [Example 640, N-((4-(3-phenyl-1-(pyrrolidin-1-yl)propyl)cyclohexyl)methyl)-2-(2-(2,4,6-trichloro-N-methylphenylsulfonamido)ethoxy)acetamide]
[1]; Ca2+ FLIPR, CHO K1 hB1R cells
  inhibition at 10 µM: 101%
[2]; Ca2+ FLIPR, CHO K1 rB1R cells
  inhibition at 10 µM: 63%
[3]; [5]
  inhibition at 1 µM: 27%

## O=C(COC1CCN(S(=O)(=O)c2c(Cl)cc(Cl)cc2Cl)C1)NC1CCC(C(c2ccccc2)N2CCCC2)CC1 (stereo not drawn) [Example 635, N-(4-(phenyl(pyrrolidin-1-yl)methyl)cyclohexyl)-2-(1-(2,4,6-trichlorophenylsulfonyl)pyrrolidin-3-yloxy)acetamide]
[1]; Ca2+ FLIPR, CHO K1 hB1R cells
  inhibition at 10 µM: 67%
[2]; Ca2+ FLIPR, CHO K1 rB1R cells
  inhibition at 10 µM: 22%
[3]; [5]
  inhibition at 1 µM: 78%

## COc1cc(C)c(S(=O)(=O)N(C)CCOCC(=O)NC2CCC(C(c3ccccc3)N3CCOCC3)CC2)c(C)c1 (stereo not drawn) [Example 681, 2-(2-(4-methoxy-N,2,6-trimethylphenylsulfonamido)ethoxy)-N-(4-(morpholino(phenyl)methyl)cyclohexyl)acetamide]
[1]; Ca2+ FLIPR, CHO K1 hB1R cells
  inhibition at 10 µM: 98%
[2]; Ca2+ FLIPR, CHO K1 rB1R cells
  inhibition at 10 µM: 98%
[3]; [5]
  inhibition at 1 µM: 10%

## COc1cc(C)c(S(=O)(=O)N(C)CCOCC(=O)NC2CCC(C(c3ccccc3)N3CCCC3)CC2)c(C)c1C (stereo not drawn) [Example 618, 2-{2-[(4-methoxy-2,3,6-trimethylbenzenesulfonyl)-methylamino]-ethoxy}-N-[4-(phenylpyrrolidin-1-yl-methyl)-cyclohexyl]-acetamide]
[1]; Ca2+ FLIPR, CHO K1 hB1R cells
  inhibition at 10 µM: 95%
[2]; Ca2+ FLIPR, CHO K1 rB1R cells
  inhibition at 10 µM: 3%
[3]; Table 2, read-out: μ receptor
  inhibition at 1 µM: 43%

## COc1cc(C)c(S(=O)(=O)N(C)CCOCC(=O)NCC2CCC(C(c3ccccc3)N3CCCC3)CC2)c(C)c1 (stereo not drawn) [Example 642, 2-(2-(4-methoxy-N,2,6-trimethylphenylsulfonamido)ethoxy)-N-((4-(phenyl(pyrrolidin-1-yl)methyl)cyclohexyl)methyl)acetamide]
[1]; Ca2+ FLIPR, CHO K1 hB1R cells
  inhibition at 10 µM: 105%
[2]; Ca2+ FLIPR, CHO K1 rB1R cells
  inhibition at 10 µM: 105%
[3]; [5]
  inhibition at 1 µM: 54%

## O=C(COCC1CCCCN1S(=O)(=O)c1c(Cl)cc(Cl)cc1Cl)NC1CCC(C(CCc2ccccc2)N2CCOCC2)CC1 (stereo not drawn) [Example 737, N-(4-(1-morpholino-3-phenylpropyl)cyclohexyl)-2-((1-(2,4,6-trichlorophenylsulfonyl)piperidin-2-yl)methoxy)acetamide]
[1]; Ca2+ FLIPR, CHO K1 hB1R cells
  inhibition at 10 µM: 23%
[2]; Ca2+ FLIPR, CHO K1 rB1R cells
  inhibition at 10 µM: 56%
[3]; [5]
  inhibition at 1 µM: 22%

## COc1cc(C)c(S(=O)(=O)N(C)CCOCC(=O)NC2CCC(C(c3ccccc3)N3CCN(C)CC3)CC2)c(C)c1 (stereo not drawn) [Example 682, 2-(2-(4-methoxy-N,2,6-trimethylphenylsulfonamido)ethoxy)-N-(4-((4-methylpiperazin-1-yl)(phenyl)methyl)cyclohexyl)acetamide]
[1]; Ca2+ FLIPR, CHO K1 hB1R cells
  inhibition at 10 µM: 104%
[2]; Ca2+ FLIPR, CHO K1 rB1R cells
  inhibition at 10 µM: 103%
[3]; [5]
  inhibition at 1 µM: 36%

## COc1cc(C)c(S(=O)(=O)N(C)CCOCC(=O)NC2CCC(C(c3ccccc3)N(C)C)CC2)c(C)c1C (stereo not drawn) [Example 597, N-[4-(dimethylaminophenylmethyl)-cyclohexyl]-2-{2-[(4-methoxy-2,3,6-trimethylbenzenesulfonyl)-methylamino]-ethoxy}-acetamide]
[1]; B1R antagonism human, Ca2+ FLIPR, CHO K1 hB1R cells
  B1R Ant. h [10 μM] % Inhibition: 72%
[2]; B1R antagonism rat, Ca2+ FLIPR, CHO K1 rB1R cells
  B1R Ant. r [10 μM] % Inhibition: −22%
[3]; Table 2, read-out: μ receptor
  inhibition at 1 µM: 87%

## O=C(COCC1CCCCN1S(=O)(=O)c1c(Cl)cc(Cl)cc1Cl)NC1CCC(C(c2ccccc2)N2CCCC2)CC1 (stereo not drawn) [Example 653, N-(4-(phenyl(pyrrolidin-1-yl)methyl)cyclohexyl)-2-((1-(2,4,6-trichlorophenylsulfonyl)piperidin-2-yl)methoxy)acetamide]
[1]; Ca2+ FLIPR, CHO K1 hB1R cells
  inhibition at 10 µM: 101%
[2]; Ca2+ FLIPR, CHO K1 rB1R cells
  inhibition at 10 µM: 95%
[3]; [5]
  inhibition at 1 µM: 94%

## CN(C)C(c1ccccc1)C1CCC(CNC(=O)COC2CCCN(S(=O)(=O)c3c(Cl)cc(Cl)cc3Cl)C2)CC1 (stereo not drawn) [Example 621, N-[4-(dimethylaminophenylmethyl)-cyclohexylmethyl]-2-[1-(2,4,6-trichlorobenzenesulfonyl)-piperidin-3-yloxy]-acetamide]
[1]; Ca2+ FLIPR, CHO K1 hB1R cells
  inhibition at 10 µM: 88%
[2]; Ca2+ FLIPR, CHO K1 rB1R cells
  inhibition at 10 µM: 0%
[3]; Table 2, read-out: μ receptor
  inhibition at 1 µM: 90%

## CN(C)C(c1ccccc1)C1CCC(NC(=O)CCOCN(C)S(=O)(=O)c2c(Cl)cc(Cl)cc2Cl)CC1 (stereo not drawn) [Example 620, N-[4-(dimethylaminophenylmethyl)-cyclohexyl]-3-{[methyl-(2,4,6-trichlorobenzenesulfonyl)-amino]-methoxy}-propionamide]
[1]; Ca2+ FLIPR, CHO K1 hB1R cells
  inhibition at 10 µM: 103%
[2]; Ca2+ FLIPR, CHO K1 rB1R cells
  inhibition at 10 µM: 73%
[3]; Table 2, read-out: μ receptor
  inhibition at 1 µM: 92%

## COc1cc(C)c(S(=O)(=O)N2CCCCC2COCC(=O)NC2CCC(C(CCc3ccccc3)N3CCOCC3)CC2)c(C)c1 (stereo not drawn) [Example 733, 2-((1-(4-methoxy-2,6-dimethylphenylsulfonyl)piperidin-2-yl)methoxy)-N-(4-(1-morpholino-3-phenylpropyl)cyclohexyl)acetamide]
[1]; Ca2+ FLIPR, CHO K1 hB1R cells
  inhibition at 10 µM: 87%
[2]; Ca2+ FLIPR, CHO K1 rB1R cells
  inhibition at 10 µM: 100%
[3]; [5]
  inhibition at 1 µM: 21%

## CN(CCOCC(=O)NC1CCC(C(c2ccccc2)N2CCCC2)CC1)S(=O)(=O)c1ccc(Cl)cc1Cl (stereo not drawn) [Example 627, 2-(2-(2,4-dichloro-N-methylphenylsulfonamido)ethoxy)-N-(4-(phenyl(pyrrolidin-1-yl)methyl)cyclohexyl)acetamide]
[1]; Ca2+ FLIPR, CHO K1 hB1R cells
  inhibition at 10 µM: 75%
[2]; Ca2+ FLIPR, CHO K1 rB1R cells
  inhibition at 10 µM: 35%
[3]; [5]
  inhibition at 1 µM: 69%

## CN(C)C(Cc1ccccc1)C1CCC(NC(=O)COCCN(C)S(=O)(=O)c2c(Cl)cc(Cl)cc2Cl)CC1 (stereo not drawn) [Example 616, N-[4-(1-dimethylamino-2-phenylethyl)-cyclohexyl]-2-{2-[methyl-(2,4,6-trichlorobenzenesulfonyl)-amino]-ethoxy}-acetamide]
[1]; Ca2+ FLIPR, CHO K1 hB1R cells
  inhibition at 10 µM: 100%
[2]; Ca2+ FLIPR, CHO K1 rB1R cells
  inhibition at 10 µM: 43%
[3]; Table 2, read-out: μ receptor
  inhibition at 1 µM: 64%

## O=C(COCC1CCCN1S(=O)(=O)c1c(Cl)cc(Cl)cc1Cl)NCC1CCC(C(CCc2ccccc2)N2CCOCC2)CC1 (stereo not drawn) [Example 751, N-((4-(1-morpholino-3-phenylpropyl)cyclohexyl)methyl)-2-((1-(2,4,6-trichlorophenylsulfonyl)pyrrolidin-2-yl)methoxy)acetamide]
[1]; Ca2+ FLIPR, CHO K1 hB1R cells
  inhibition at 10 µM: 45%
[2]; Ca2+ FLIPR, CHO K1 rB1R cells
  inhibition at 10 µM: 73%
[3]; [5]
  inhibition at 1 µM: 32%
